Measured values from patent publication US9000179B2, “Inhibitors of proliferation and activation of signal transducer and activator of transcription (STATs)” (Board of Regents, The University of Texas System, priority 2008, dated 2015).

Experiments:
Assay type in all cases: cell-based
[1] = test system: U87 brain tumor; assay: Cell survival of U87 brain tumor (MTT); conditions: U87, FIG. 2
Procedure: (§1) A variety of cell types were seeded at a density of 50,000 cells/100 μl per well onto 96-well plates and cultured for 24-48 h in DMEM medium until they reached confluency. At confluency, 25 μl of fresh media containing WP1220 at various concentrations (0 to 100 μM) was added to the wells and incubated for 72 h at 37° C. The complex was removed, 100 μl of fresh medium was added and the cells were incubated overnight. Medium was removed and fresh medium (100 μl) was added to each well along with (20 μl) MTT solution (5 mg/ml in PBS) before incubating the cells for a further 4 h at 37° C. The reaction product was solubilised with sodium dodecyl sulfate (100 μl, 10%, w/v) in 0.01 N HCl overnight before quantifying the product using a microplate reader at 590 nm and comparing with control cells. The experiment was carried out in triplicate (n=3).

[2] = test system: SCOVE3 ovarian cancer cell; assay: SCOVE3 ovarian cancer cell growth (MTT); conditions: SCOVE3, FIG. 3
Procedure: as §1

[3] = test system: Colo357FG pancreatic cancer cell line; assay: Antiproliferative activity, MTT cell viability; conditions: COLO 357/FG
Procedure: The antiproliferative activity of the Compound of Example 1 and Example 7 have been shown in a Colo357FG pancreatic cancer cell line as follows:
as §1

[4] = test system: STAT3; assay: Western blot, inhibition of STAT3 phosphorylation in Colo357FG tumor cell line; conditions: FIG. 1
Procedure: (§2) Using phospho-tyrosine STAT3 (Y705), phospho-tyrosine Jak2 (Y1007/1008), total STAT3, total Jak2, Bcl-xL, actin (Cell Signaling Technology, Danvers, Mass.), and survivin (R&D Systems, Minneapolis, Minn.) antibodies, western blots were performed using the following methods. Briefly, (1) Samples were prepared from cells that were homogenized in a buffer protecting the protein of interest from degradation; (2) The sample was then separated using SDS-PAGE (10-15 μg protein/well) and then transferred to a membrane for detection; and (3) The membrane was incubated with a generic protein (milk proteins) to bind to any remaining sites on the membrane. A primary antibody was then added to the solution which is able to bind to its specific protein; (4) A secondary antibody-enzyme conjugate, which recognizes the primary antibody was then added to find locations where the primary antibody has bound.

[5] = test system: STAT-3; assay: Western blot, STAT-3 phosphorylation in D54 brain tumor cell lines; conditions: FIG. 4
Procedure: as §2

Row | SMILES | cell survival of the U87 brain tumor [1] | inhibition of SCOVE3 ovarian cancer cell growth [2] | IC50 [3] | further results
1 | C[C@H](NC(=O)/C(C#N)=C/C=C/c1cccc(Cl)n1)c1ccccc1 [Example 2, (2E,4E)-5-(6-chloropyridin-2-yl)-2-cyano-N-[(1S)-1-phenylethyl]penta-2,4-dienamide] | lack of cell survival | inhibition of the SCOVE3 ovarian cancer cell growth | – | –
2 | N#C/C(=C\C=C\c1cccc(Br)n1)C(=O)NCc1ccccc1 [Example 4, (2E,4E)-N-benzyl-5-(6-bromopyridin-2-yl)-2-cyanopenta-2,4-dienamide] | lack of cell survival | inhibition of the SCOVE3 ovarian cancer cell growth | – | –
3 | N#C/C(=C\C=C\c1cccc(Br)n1)C(=O)N[C@H](c1ccccc1)C1CC1 [Example 7, (2E,4E)-5-(6-bromopyridin-2-yl)-2-cyano-N-[(S)-cyclopropyl(phenyl)methyl]penta-2,4-dienamide] | – | – | 5.4 µM | –
4 | C[C@H](NC(=O)/C(C#N)=C/C=C/c1cccc(Br)n1)c1ccccc1 [Example 1, (2E,4E)-5-(6-bromopyridin-2-yl)-2-cyano-N-[(1S)-1-phenylethyl]penta-2,4-dienamide] | – | – | 3.2 µM | inhibition of STAT3 phosphorylation [4]: inhibition of STAT3 phosphorylation
5 | CCC[C@H](NC(=O)/C(C#N)=C/C=C/c1cccc(Br)n1)c1ccccc1 [Example 9, (2E,4E)-5-(6-bromopyridin-2-yl)-2-cyano-N-[(1S)-1-phenylbutyl]penta-2,4-dienamide] | – | – | – | inhibition of IL-2 phosphorylation of STAT-3 [5]: constitutively inhibiting the IL-2 phosphorylation of STAT-3
